Patent publication US12077503B2, “Substituted cyclic amides and their use as herbicides” (FMC CORPORATION, priority 2015, dated 2024)

What was measured:
Type in all cases: in vivo
Kochia (Kochia scoparia) [1] = test: Test A preemergence
Summary of the method: (§1)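 Treatment is preemergence as a directed soil spray after planting, or postemergence at the one- to two-leaf stage, with test chemical in a non-phytotoxic solvent mixture plus surfactant. Plants stay in the greenhouse about 10 d before visual injury scoring on a 0 to 100 scale versus untreated controls.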

[2] = tested on: giant foxtail (Setaria faberii); test: Test A preemergence
Summary of the method: as §1

[3] = tested on: pigweed (Amaranthus retroflexus); test: Test A preemergence
[4] = tested on: ragweed (common ragweed, Ambrosia elatior); test: Test A preemergence
Summary of the method: as §1

[5] = tested on: barnyardgrass (Echinochloa crus-galli); test: Test A preemergence
Summary of the method: as §1

[6] = tested on: ryegrass, Italian (Italian ryegrass, Lolium multiflorum); test: Test A preemergence
Summary of the method: as §1

Kochia (Kochia scoparia) [7] = test: Test A postemergence
Summary of the method: as §1

[8] = tested on: giant foxtail (Setaria faberii); test: Test A postemergence
Summary of the method: as §1

corn (Zea mays) = test: Test A postemergence
Summary of the method: as §1

[9] = tested on: pigweed (Amaranthus retroflexus); test: Test A postemergence; details: postemergence
Summary of the method: as §1

[10] = tested on: blackgrass (Alopecurus myosuroides); test: Test A postemergence
Summary of the method: as §1

[11] = tested on: ragweed (common ragweed, Ambrosia elatior); test: Test A postemergence; details: postemergence
Summary of the method: as §1

[12] = tested on: barnyardgrass (Echinochloa crus-galli); test: Test A postemergence
Summary of the method: as §1

[13] = tested on: ryegrass, Italian (Italian ryegrass, Lolium multiflorum); test: Test A postemergence; details: postemergence
Summary of the method: as §1

[14] = tested on: wheat (Triticum aestivum); test: Test A postemergence; details: postemergence
Summary of the method: as §1

[15] = tested on: Galium (catchweed bedstraw, Galium aparine); test: Test A postemergence
Summary of the method: as §1

[16] = tested on: sedge, umbrella (small-flower umbrella sedge, Cyperus difformis); test: Test B flooded paddy test; details: 250 g ai/ha, Flood, 0 to 100 scale where 0 is no effect and 100 is complete control
Summary of the method: (§2)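 Response scored visually against untreated controls, 0 = no effect and 100 = complete control, 13–15 d after treatment in the greenhouse. Compounds added to paddy water held 3 cm above soil surface. Treatment given at 2-leaf stage.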

rice (Oryra sativa) = test: Test B flooded paddy test; details: 250 g ai/ha, Flood, 0 to 100 scale where 0 is no effect and 100 is complete control
Summary of the method: as §2

[17] = tested on: barnyardgrass (Echinochloa crus-galli); test: Test B flooded paddy test; details: 250 g ai/ha, Flood, 0 to 100 scale where 0 is no effect and 100 is complete control
Summary of the method: as §2

[18] = tested on: ducksalad (Heteranthera limosa); test: Test B flooded paddy test; details: 250 g ai/ha, Flood, 0 to 100 scale where 0 is no effect and 100 is complete control
Summary of the method: as §2

[19] = 125 g ai/ha, preemergence, 0 to 100 scale (0 no effect, 100 complete control)
[20] = Preemergence, 500 g ai/ha, visual injury approx. 10 d
[21] = 125 g ai/ha, postemergence, visual injury rating on 0 to 100 scale (0 no effect, 100 complete control), approx. 10 d
[22] = 500 g ai/ha, postemergence, 0 to 100 scale, 0 no effect, 100 complete control
[23] = 125 g ai/ha, visual injury rating on 0 to 100 scale (0 no effect, 100 complete control), approx. 10 d
[24] = 500 g ai/ha, 0 to 100 scale, 0 no effect, 100 complete control

CN1C[C@H](c2ccc([Si](C)(C)C)cc2)[C@@H](C(=O)Nc2cccc(F)c2F)C1=O [Compound 1168]
0%: pest or weed control at 31 g/ha (Kochia (Kochia scoparia) [1]; Bassia scoparia, pre-emergence, 240 h, 31 g ai/ha, Preemergence, 0 to 100 scale where 0 is no effect and 100 is complete control, read-out: Kochia plant response rating) | pest or weed control at 125 g/ha (Kochia (Kochia scoparia) [1]; Bassia scoparia, pre-emergence, 240 h, 125 g ai/ha, preemergence, 0 to 100 scale where 0 is no effect and 100 is complete control, approx. 10 d, read-out: Kochia plant response rating) | pest or weed control at 31 g/ha ([2]; Setaria faberi, pre-emergence, 240 h, 31 g ai/ha, Preemergence, 0 to 100 scale where 0 is no effect and 100 is complete control, read-out: Foxtail, Giant plant response rating) | pest or weed control at 31 g/ha ([3]; Amaranthus retroflexus, pre-emergence, 240 h, 31 g ai/ha, Preemergence, 0 to 100 scale where 0 is no effect and 100 is complete control, read-out: Pigweed plant response rating) | pest or weed control at 125 g/ha ([3]; Amaranthus retroflexus, pre-emergence, 240 h, 125 g ai/ha, preemergence, 0 to 100 scale where 0 is no effect and 100 is complete control, approx. 10 d, read-out: Pigweed plant response rating) | pest or weed control at 31 g/ha ([4]; Ambrosia artemisiifolia, pre-emergence, 240 h, 31 g ai/ha, Preemergence, 0 to 100 scale where 0 is no effect and 100 is complete control, read-out: Ragweed plant response rating) | pest or weed control at 125 g/ha ([4]; Ambrosia artemisiifolia, pre-emergence, 240 h, 125 g ai/ha, preemergence, 0 to 100 scale where 0 is no effect and 100 is complete control, approx. 10 d, read-out: Ragweed plant response rating) | pest or weed control at 31 g/ha ([5]; Echinochloa crus-galli, pre-emergence, 240 h, 31 g ai/ha, Preemergence, 0 to 100 scale where 0 is no effect and 100 is complete control, read-out: Barnyardgrass plant response rating) | pest or weed control at 125 g/ha ([5]; Echinochloa crus-galli, pre-emergence, 240 h, 125 g ai/ha, preemergence, 0 to 100 scale where 0 is no effect and 100 is complete control, approx. 10 d, read-out: Barnyardgrass plant response rating) | pest or weed control at 31 g/ha ([6]; Lolium multiflorum, pre-emergence, 240 h, 31 g ai/ha, Preemergence, 0 to 100 scale where 0 is no effect and 100 is complete control, read-out: Ryegrass, Italian plant response rating) | pest or weed control at 125 g/ha ([6]; Lolium multiflorum, pre-emergence, 240 h, 125 g ai/ha, preemergence, 0 to 100 scale where 0 is no effect and 100 is complete control, approx. 10 d, read-out: Ryegrass, Italian plant response rating) | pest or weed control at 125 g/ha (Kochia (Kochia scoparia) [7]; Bassia scoparia, post-emergence, 240 h, 125 g ai/ha, postemergence, visual injury vs untreated controls after approx. 10 d, 0 = no effect, 100 = complete control, read-out: Kochia plant response rating (0 to 100 scale)) | pest or weed control at 31 g/ha (Kochia (Kochia scoparia) [7]; Bassia scoparia, post-emergence, 240 h, Postemergence, 31 g ai/ha, visual injury after approx. 10 d, 0 to 100 scale, 0 no effect, 100 complete control, read-out: Plant response rating, Kochia) | pest or weed control at 31 g/ha ([8]; Setaria faberi, post-emergence, 240 h, Postemergence, 31 g ai/ha, visual injury after approx. 10 d, 0 to 100 scale, 0 no effect, 100 complete control, read-out: Plant response rating, Foxtail, Giant) | plant injury at 125 g/ha (corn (Zea mays); Zea mays, post-emergence, 240 h, 125 g ai/ha, postemergence, visual injury vs untreated controls after approx. 10 d, 0 = no effect, 100 = complete control, read-out: Corn plant response rating (0 to 100 scale)) | Corn plant response rating (crop injury, 0 = no effect, 100 = complete kill) at 31 g/ha (corn (Zea mays); Zea mays, post-emergence, 240 h, Postemergence, 31 g ai/ha, visual injury after approx. 10 d, 0 to 100 scale, 0 no effect, 100 complete control) | pest or weed control at 125 g/ha ([9]; Amaranthus retroflexus, post-emergence, 240 h, 125 g ai/ha, visual injury vs untreated controls after approx. 10 d, 0 = no effect, 100 = complete control, read-out: Pigweed plant response rating (0 to 100 scale)) | pest or weed control at 125 g/ha ([10]; Alopecurus myosuroides, post-emergence, 240 h, 125 g ai/ha, postemergence, visual injury vs untreated controls after approx. 10 d, 0 = no effect, 100 = complete control, read-out: Blackgrass plant response rating (0 to 100 scale)) | pest or weed control at 31 g/ha ([10]; Alopecurus myosuroides, post-emergence, 240 h, Postemergence, 31 g ai/ha, visual injury after approx. 10 d, 0 to 100 scale, 0 no effect, 100 complete control, read-out: Plant response rating, Blackgrass) | pest or weed control at 125 g/ha ([11]; Ambrosia artemisiifolia, post-emergence, 240 h, 125 g ai/ha, visual injury vs untreated controls after approx. 10 d, 0 = no effect, 100 = complete control, read-out: Ragweed plant response rating (0 to 100 scale)) | pest or weed control at 125 g/ha ([12]; Echinochloa crus-galli, post-emergence, 240 h, 125 g ai/ha, postemergence, visual injury vs untreated controls after approx. 10 d, 0 = no effect, 100 = complete control, read-out: Barnyardgrass plant response rating (0 to 100 scale)) | pest or weed control at 31 g/ha ([12]; Echinochloa crus-galli, post-emergence, 240 h, Postemergence, 31 g ai/ha, visual injury after approx. 10 d, 0 to 100 scale, 0 no effect, 100 complete control, read-out: Plant response rating, Barnyardgrass) | pest or weed control at 125 g/ha ([13]; Lolium multiflorum, post-emergence, 240 h, 125 g ai/ha, visual injury vs untreated controls after approx. 10 d, 0 = no effect, 100 = complete control, read-out: Ryegrass, Italian plant response rating (0 to 100 scale)) | pest or weed control at 31 g/ha ([15]; Galium, post-emergence, 240 h, Postemergence, 31 g ai/ha, visual injury after approx. 10 d, 0 to 100 scale, 0 no effect, 100 complete control, read-out: Plant response rating, Galium) | pest or weed control at 250 g/ha ([16]; Cyperus difformis, read-out: Sedge, Umbrella plant response rating) | pest or weed control at 250 g/ha ([18]; Heteranthera limosa, read-out: Ducksalad plant response rating)
30%: pest or weed control at 125 g/ha ([2]; Setaria faberi, pre-emergence, 240 h, 125 g ai/ha, preemergence, 0 to 100 scale where 0 is no effect and 100 is complete control, approx. 10 d, read-out: Foxtail, Giant plant response rating) | pest or weed control at 125 g/ha ([15]; Galium, post-emergence, 240 h, 125 g ai/ha, postemergence, visual injury vs untreated controls after approx. 10 d, 0 = no effect, 100 = complete control, read-out: Galium plant response rating (0 to 100 scale)) | pest or weed control at 250 g/ha (rice (Oryra sativa); Oryza sativa, read-out: Rice plant response rating)
40%: pest or weed control at 250 g/ha ([17]; Echinochloa crus-galli, read-out: Barnyardgrass plant response rating)
20%: pest or weed control at 125 g/ha ([8]; Setaria faberi, post-emergence, 240 h, 125 g ai/ha, postemergence, visual injury vs untreated controls after approx. 10 d, 0 = no effect, 100 = complete control, read-out: Foxtail, Giant plant response rating (0 to 100 scale)) | plant injury at 125 g/ha ([14]; Triticum aestivum, post-emergence, 240 h, 125 g ai/ha, visual injury vs untreated controls after approx. 10 d, 0 = no effect, 100 = complete control, read-out: Wheat plant response rating (0 to 100 scale))

Cc1ccc(C2CN(C)C(=O)C2C(=O)Nc2ccccc2F)cc1F (centres unmarked) [Compound 465]
0: Pigweed plant response rating [9, 23] | Ragweed plant response rating [11, 23] | Plant response rating, Sedge, Umbrella ([16]; 13 to 15 d) | Plant response rating, Rice (rice (Oryra sativa); 13 to 15 d)
100: Plant response rating, Foxtail, Giant [2, 19] | Foxtail, Giant plant response rating (0 to 100 scale, 0 is no effect, 100 is complete control) [2, 20] | Barnyardgrass plant response rating (0 to 100 scale, 0 is no effect, 100 is complete control) [5, 20] | Plant response rating, Ducksalad ([18]; 13 to 15 d)
90: Plant response rating, Barnyardgrass [5, 19] | Foxtail, Giant plant response rating [8, 21] | Plant response rating, Foxtail, Giant [8, 22] | Plant response rating, Corn (corn (Zea mays); [22]) | Barnyardgrass plant response rating [12, 21] | Plant response rating, Barnyardgrass [12, 22]
40: Plant response rating, Ragweed [4, 19] | Blackgrass plant response rating [10, 21]
70: Pigweed plant response rating (0 to 100 scale, 0 is no effect, 100 is complete control) [3, 20] | Ragweed plant response rating (0 to 100 scale, 0 is no effect, 100 is complete control) [4, 20] | Plant response rating, Ryegrass, Italian [6, 19] | Ryegrass, Italian plant response rating (0 to 100 scale, 0 is no effect, 100 is complete control) [6, 20] | Plant response rating, Blackgrass [10, 22] | Plant response rating, Ryegrass, Italian [13, 24] | Plant response rating, Wheat [14, 24]
20: Plant response rating, Pigweed [9, 24]
60: Plant response rating, Kochia (Kochia (Kochia scoparia) [7]; [22]) | Ryegrass, Italian plant response rating [13, 23] | Wheat plant response rating [14, 23] | Galium plant response rating [15, 21] | Plant response rating, Galium [15, 22]
30: Plant response rating, Ragweed [11, 24]
50: Plant response rating, Pigweed [3, 19] | Kochia plant response rating (Kochia (Kochia scoparia) [7]; [21])
80: Plant response rating, Kochia (Kochia (Kochia scoparia) [1]; [19]) | Kochia plant response rating (0 to 100 scale, 0 is no effect, 100 is complete control) (Kochia (Kochia scoparia) [1]; [20]) | Corn plant response rating (corn (Zea mays); [21]) | Plant response rating, Barnyardgrass ([17]; 13 to 15 d)
